This is an account of results in ChEMBL document CHEMBL2439979 (Bioorg Med Chem Lett, 2013).

Assay [1] has as its target Muscarinic acetylcholine receptor. The assay can be described thus: Binding affinity to muscarinic M1/M5 receptor (unknown origin). It counts as protein assay, Homo sapiens.
Assay [2] addresses Neuronal acetylcholine receptor subunit alpha-7 (Homo sapiens, UniProt P36544). Nature of the assay: Binding affinity to alpha7 nAChR (unknown origin).
Assay [3] concerns the target Neuronal acetylcholine receptor; alpha4/beta2 (Homo sapiens, UniProt P17787+P43681). Nature of the assay: Binding affinity to alpha4beta2 nAChR (unknown origin). It counts as protein-complex assay.
The target in assay [4] is T1, Muscarinic acetylcholine receptor M4 (Homo sapiens, UniProt P08173).
T1 sequence (P08173 whole entry): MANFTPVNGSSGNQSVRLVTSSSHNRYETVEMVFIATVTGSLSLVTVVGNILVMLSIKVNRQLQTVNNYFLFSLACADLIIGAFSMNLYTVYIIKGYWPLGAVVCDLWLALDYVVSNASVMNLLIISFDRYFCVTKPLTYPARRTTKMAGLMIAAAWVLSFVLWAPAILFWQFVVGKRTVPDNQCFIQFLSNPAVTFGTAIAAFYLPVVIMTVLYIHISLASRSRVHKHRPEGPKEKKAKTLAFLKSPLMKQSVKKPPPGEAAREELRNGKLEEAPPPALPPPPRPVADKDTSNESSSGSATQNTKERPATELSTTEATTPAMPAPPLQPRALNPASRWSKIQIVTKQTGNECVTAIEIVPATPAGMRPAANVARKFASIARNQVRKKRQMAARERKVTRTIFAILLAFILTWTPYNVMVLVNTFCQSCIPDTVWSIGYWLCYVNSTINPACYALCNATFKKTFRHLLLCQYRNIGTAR
The assay can be described thus: Displacement of [3H]NMS from human muscarinic M4 receptor expressed in CHO cells.

For assay [5], the target named is T2, Muscarinic acetylcholine receptor M2 (Homo sapiens, UniProt P08172).
T2 sequence (P08172 whole entry): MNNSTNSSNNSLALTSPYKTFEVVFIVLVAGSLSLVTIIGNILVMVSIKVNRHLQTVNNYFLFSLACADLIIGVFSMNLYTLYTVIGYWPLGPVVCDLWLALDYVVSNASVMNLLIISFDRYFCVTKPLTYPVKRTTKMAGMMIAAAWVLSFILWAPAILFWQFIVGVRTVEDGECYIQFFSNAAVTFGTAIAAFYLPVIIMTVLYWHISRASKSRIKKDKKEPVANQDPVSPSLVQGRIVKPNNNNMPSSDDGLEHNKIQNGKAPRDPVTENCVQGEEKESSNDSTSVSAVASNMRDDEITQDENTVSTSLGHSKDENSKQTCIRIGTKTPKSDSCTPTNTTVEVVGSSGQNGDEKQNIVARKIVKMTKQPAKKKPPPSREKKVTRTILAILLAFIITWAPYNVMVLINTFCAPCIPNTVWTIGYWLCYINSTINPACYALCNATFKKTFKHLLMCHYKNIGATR
The assay can be described thus: Displacement of [3H]NMS from human muscarinic M2 receptor expressed in CHO cells. Background: Displacement assays read how much labelled ligand stays bound in the presence of the test substance.

Assay [6] concerns the target T3, Muscarinic acetylcholine receptor M1 (Homo sapiens, UniProt P11229).
T3 sequence (P11229 whole entry): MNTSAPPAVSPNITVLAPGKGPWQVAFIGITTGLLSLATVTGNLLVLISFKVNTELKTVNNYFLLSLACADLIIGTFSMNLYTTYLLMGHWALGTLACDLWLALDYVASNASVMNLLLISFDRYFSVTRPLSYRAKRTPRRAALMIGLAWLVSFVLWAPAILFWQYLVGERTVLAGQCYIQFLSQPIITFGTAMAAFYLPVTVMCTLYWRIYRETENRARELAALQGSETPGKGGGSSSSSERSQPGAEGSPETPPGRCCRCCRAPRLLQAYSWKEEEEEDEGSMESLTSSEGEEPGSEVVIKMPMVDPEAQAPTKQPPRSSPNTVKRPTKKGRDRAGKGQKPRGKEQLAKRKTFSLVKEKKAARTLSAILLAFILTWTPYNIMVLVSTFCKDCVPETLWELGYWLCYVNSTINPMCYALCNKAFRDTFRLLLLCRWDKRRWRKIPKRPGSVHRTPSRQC
The assay can be described thus: Displacement of [3H]NMS from human muscarinic M1 receptor expressed in CHO cells.

Assay [7] deals with T4, Muscarinic acetylcholine receptor M5 (Homo sapiens, UniProt P08912).
T4 sequence (P08912 whole entry): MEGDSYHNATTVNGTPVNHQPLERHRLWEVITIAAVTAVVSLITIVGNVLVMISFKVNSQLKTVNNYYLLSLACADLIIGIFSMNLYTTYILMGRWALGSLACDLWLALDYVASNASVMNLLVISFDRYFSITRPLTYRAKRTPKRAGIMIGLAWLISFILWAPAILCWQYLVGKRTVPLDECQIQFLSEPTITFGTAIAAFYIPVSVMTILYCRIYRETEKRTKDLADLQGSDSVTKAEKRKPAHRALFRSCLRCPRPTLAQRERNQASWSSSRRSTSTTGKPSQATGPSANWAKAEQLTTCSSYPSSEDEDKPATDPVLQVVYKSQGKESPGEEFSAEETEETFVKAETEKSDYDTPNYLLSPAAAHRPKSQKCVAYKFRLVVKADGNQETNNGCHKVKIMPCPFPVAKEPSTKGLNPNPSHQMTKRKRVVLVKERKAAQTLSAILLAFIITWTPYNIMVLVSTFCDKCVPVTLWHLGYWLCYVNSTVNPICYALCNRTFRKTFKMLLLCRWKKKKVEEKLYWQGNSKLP
The assay can be described thus: Displacement of [3H]NMS from human muscarinic M5 receptor expressed in CHO cells.

Assay [8] concerns the target Muscarinic acetylcholine receptor M3 (Homo sapiens, UniProt P20309). The assay can be described thus: Displacement of [3H]NMS from human muscarinic M3 receptor expressed in CHO cells.
Assay [9] deals with Neuronal acetylcholine receptor; alpha4/beta2 (Rattus norvegicus, UniProt P09483+P12390). The assay can be described thus: Displacement of [3H]-epibatidine from alpha4beta2 nAChR in rat cortex hippocampus. It counts as tissue-based.
Assay [10] addresses Neuronal acetylcholine receptor subunit alpha-7 (Rattus norvegicus, UniProt Q05941). Nature of the assay: Displacement of [125I]-alpha-bungarotoxin from alpha7 nAChR in rat hippocampus membranes. It counts as cell membranes, Membrane.

pKi: −log10 of the molar value.

Muscarinic acetylcholine receptor M3, sequence (P20309 whole entry): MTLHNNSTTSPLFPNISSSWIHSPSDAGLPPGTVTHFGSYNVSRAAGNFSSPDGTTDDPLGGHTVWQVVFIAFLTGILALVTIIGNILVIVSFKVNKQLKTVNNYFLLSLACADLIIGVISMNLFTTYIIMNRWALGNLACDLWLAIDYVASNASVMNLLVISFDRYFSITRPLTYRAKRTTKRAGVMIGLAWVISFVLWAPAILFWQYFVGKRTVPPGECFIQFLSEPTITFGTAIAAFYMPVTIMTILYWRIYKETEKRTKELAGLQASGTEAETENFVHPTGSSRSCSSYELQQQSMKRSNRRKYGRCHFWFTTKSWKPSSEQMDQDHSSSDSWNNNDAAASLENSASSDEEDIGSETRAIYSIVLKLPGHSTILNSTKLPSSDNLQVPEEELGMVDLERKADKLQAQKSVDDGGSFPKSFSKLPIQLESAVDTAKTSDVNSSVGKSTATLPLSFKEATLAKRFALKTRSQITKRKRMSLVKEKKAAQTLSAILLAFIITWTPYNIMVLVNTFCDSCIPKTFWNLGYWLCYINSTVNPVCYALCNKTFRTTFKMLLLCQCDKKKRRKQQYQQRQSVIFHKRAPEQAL
Neuronal acetylcholine receptor; alpha4/beta2 (Rattus norvegicus, UniProt P09483+P12390), sequence (P09483 whole entry): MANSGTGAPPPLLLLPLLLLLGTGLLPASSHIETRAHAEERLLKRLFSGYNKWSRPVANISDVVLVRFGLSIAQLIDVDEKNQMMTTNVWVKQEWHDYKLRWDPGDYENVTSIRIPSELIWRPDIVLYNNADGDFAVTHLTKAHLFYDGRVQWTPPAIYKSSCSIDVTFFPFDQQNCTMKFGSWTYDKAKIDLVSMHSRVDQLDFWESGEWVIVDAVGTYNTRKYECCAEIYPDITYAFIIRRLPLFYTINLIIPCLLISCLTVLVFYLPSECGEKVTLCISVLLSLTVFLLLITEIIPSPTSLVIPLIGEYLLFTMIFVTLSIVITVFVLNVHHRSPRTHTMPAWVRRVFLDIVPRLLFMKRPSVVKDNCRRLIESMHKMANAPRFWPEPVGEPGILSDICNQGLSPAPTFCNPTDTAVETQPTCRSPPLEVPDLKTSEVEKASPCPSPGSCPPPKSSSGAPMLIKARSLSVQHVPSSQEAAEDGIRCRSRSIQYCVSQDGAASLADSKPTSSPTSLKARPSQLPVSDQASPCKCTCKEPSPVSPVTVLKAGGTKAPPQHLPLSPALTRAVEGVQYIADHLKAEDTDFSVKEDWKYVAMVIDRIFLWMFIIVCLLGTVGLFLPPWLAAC
Neuronal acetylcholine receptor; alpha4/beta2 (Rattus norvegicus, UniProt P09483+P12390), sequence (P12390 whole entry): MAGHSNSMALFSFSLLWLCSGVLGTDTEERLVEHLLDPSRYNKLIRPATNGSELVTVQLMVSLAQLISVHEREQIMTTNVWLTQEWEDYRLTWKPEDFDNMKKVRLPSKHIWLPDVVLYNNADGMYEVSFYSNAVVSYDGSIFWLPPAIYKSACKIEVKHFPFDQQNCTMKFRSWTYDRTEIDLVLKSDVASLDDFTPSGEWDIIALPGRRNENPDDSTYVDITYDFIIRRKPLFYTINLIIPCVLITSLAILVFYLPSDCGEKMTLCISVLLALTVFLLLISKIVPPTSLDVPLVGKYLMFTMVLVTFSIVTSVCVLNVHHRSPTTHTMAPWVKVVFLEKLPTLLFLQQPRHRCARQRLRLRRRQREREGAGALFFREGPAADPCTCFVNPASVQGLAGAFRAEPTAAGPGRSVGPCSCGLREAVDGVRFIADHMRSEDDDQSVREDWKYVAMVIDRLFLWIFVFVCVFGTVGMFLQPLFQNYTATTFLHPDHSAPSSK
Neuronal acetylcholine receptor; alpha4/beta2 (Homo sapiens, UniProt P17787+P43681), sequence (P17787 whole entry): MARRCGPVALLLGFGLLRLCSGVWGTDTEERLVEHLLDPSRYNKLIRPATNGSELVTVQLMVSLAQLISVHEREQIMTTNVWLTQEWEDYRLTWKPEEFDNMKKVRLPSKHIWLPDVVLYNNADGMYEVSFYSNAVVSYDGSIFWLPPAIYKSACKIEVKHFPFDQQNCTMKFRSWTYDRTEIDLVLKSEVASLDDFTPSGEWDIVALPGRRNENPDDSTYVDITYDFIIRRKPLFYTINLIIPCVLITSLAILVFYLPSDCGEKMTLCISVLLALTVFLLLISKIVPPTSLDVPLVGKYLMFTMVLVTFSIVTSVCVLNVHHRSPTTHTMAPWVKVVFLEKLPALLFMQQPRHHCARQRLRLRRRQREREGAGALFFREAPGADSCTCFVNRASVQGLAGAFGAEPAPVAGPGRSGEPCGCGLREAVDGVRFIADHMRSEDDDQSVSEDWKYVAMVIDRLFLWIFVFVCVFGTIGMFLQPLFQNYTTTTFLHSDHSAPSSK
Neuronal acetylcholine receptor; alpha4/beta2 (Homo sapiens, UniProt P17787+P43681), sequence (P43681 whole entry): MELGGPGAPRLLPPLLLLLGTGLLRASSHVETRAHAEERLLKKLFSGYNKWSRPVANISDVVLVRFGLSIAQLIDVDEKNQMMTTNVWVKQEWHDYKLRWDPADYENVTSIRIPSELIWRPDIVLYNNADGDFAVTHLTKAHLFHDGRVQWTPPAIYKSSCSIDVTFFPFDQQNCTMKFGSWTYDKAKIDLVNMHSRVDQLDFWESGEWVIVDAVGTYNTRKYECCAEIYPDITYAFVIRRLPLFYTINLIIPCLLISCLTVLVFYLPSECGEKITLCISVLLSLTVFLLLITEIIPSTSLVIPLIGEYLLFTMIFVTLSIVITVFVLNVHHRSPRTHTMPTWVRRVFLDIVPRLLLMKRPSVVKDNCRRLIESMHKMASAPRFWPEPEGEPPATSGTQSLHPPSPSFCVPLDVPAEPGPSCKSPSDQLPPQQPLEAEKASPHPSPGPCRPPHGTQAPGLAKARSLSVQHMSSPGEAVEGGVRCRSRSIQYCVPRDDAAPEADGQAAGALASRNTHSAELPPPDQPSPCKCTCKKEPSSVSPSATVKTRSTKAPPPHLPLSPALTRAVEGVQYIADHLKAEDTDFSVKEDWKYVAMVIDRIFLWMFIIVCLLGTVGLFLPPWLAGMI
Neuronal acetylcholine receptor subunit alpha-7 (Rattus norvegicus, UniProt Q05941), sequence (Q05941 whole entry): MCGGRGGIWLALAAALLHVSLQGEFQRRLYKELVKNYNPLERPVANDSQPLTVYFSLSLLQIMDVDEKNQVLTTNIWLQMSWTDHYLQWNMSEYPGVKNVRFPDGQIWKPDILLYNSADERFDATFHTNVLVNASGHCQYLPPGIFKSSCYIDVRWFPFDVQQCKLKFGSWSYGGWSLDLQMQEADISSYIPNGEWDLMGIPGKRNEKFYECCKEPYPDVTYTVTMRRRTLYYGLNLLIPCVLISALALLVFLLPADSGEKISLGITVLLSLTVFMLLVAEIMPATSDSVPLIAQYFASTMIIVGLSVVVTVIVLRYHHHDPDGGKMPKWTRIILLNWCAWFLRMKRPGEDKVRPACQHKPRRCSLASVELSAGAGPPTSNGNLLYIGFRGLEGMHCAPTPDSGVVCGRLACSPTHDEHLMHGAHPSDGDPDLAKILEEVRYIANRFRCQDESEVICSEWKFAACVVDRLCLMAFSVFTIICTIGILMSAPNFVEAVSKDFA
Neuronal acetylcholine receptor subunit alpha-7 (Homo sapiens, UniProt P36544), sequence (P36544 whole entry): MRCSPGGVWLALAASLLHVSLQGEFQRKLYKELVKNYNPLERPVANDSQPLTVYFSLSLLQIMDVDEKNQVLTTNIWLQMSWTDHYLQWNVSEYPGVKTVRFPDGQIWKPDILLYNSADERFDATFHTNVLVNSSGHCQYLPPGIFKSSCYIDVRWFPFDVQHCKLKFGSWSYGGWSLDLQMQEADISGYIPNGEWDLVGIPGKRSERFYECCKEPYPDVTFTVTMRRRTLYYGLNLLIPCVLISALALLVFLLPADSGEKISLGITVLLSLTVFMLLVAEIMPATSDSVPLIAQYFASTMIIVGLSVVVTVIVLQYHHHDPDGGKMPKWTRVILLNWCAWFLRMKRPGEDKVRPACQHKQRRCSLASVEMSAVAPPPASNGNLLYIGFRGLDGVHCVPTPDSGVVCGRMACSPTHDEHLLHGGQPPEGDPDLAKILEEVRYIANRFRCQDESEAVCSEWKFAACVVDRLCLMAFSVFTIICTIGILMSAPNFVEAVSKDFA

The Ki is a measure of affinity in units of concentration, obtained from inhibition or displacement. A low value points to tighter binding. For orientation: pKi means the negative decadic logarithm of the Ki, by convention in mol/L. The low end stands for a large Ki, the high end for a small Ki. `CNC(=O)OCC[N+](C)(C)C`: the Ki in assay [1] worked out at 0.15 µM. In addition, the pKi in assay [2] is 4.36; in assay [3] it was 7.64.

Take `CN1CCC[C@H]1[C@H]1CNC(=O)O1`: the pKi in assay [4], in assay [5], in assay [6], in [7] and in [8] was less than 4.00 throughout.

Regarding `CN(C)C(=O)OCC[N+](C)(C)C`, in assay [1], the Ki is 1.2 µM. The compound also had a pKi in assay [3] of 7.70.

Take `CN(C)C[C@H]1CN(C)C(=O)O1`: the pKi in [4] was less than 4.00; in [5], less than 4.00; in assay [9], 5.66; in [6] it was less than 4.00; in assay [7], less than 4.00; in assay [8], less than 4.00. The compound further gave a pKi in assay [10] of 3.80.

Regarding `CN(C)C[C@@H]1CN(C)C(=O)O1`, the pKi is less than 4.00 in assay [4]; less than 4.00 in assay [5]; 5.58 in [9]; less than 4.00 in assay [6]; less than 4.00 in [7]; less than 4.00 in [8]. In assay [10], this compound gave a pKi of 3.35.

As for `CN1C[C@@H](C[N+](C)(C)C)OC1=O`, the pKi in assay [4] was less than 4.00; in assay [5], less than 4.00; in assay [9], 5.44; in assay [6] it was less than 4.00; in assay [7], less than 4.00; in [8], less than 4.00. In [10], this compound had a pKi of 4.52.

Take `CN1C[C@H](C[N+](C)(C)C)OC1=O`: the pKi was less than 4.00 in assay [4]; less than 4.00 in assay [5]; 5.51 in assay [9]; less than 4.00 in assay [6]; less than 4.00 in assay [7]; less than 4.00 in assay [8]. For the same compound, the pKi in [10] was 4.73.

As for `CN(C)C[C@@H]1CNC(=O)O1`, the pKi in [4] was less than 4.00; in assay [5], less than 4.00; in [9], 6.34; in assay [6] it was less than 4.00; in [7] it was less than 4.00; in [8], less than 4.00. Also, the pKi in [10] is 4.03.

For `CN(C)C[C@H]1CNC(=O)O1`, the pKi was less than 4.00 in assay [4]; less than 4.00 in [5]; 6.35 in [9]; less than 4.00 in assay [6]; less than 4.00 in [7]; less than 4.00 in [8]. Further, in assay [10], the negative-log Ki (pKi) is 4.39.

With `C[N+](C)(C)C[C@@H]1CNC(=O)O1`, the pKi was less than 4.00 in assay [4]; less than 4.00 in assay [5]; 6.37 in assay [9]; less than 4.00 in [6]; less than 4.00 in assay [7]; less than 4.00 in [8]. The same compound showed a pKi in assay [10] of 4.35.

Take `C[N+](C)(C)C[C@H]1CNC(=O)O1`: the pKi was less than 4.00 in assay [4]; less than 4.00 in [5]; 6.40 in [9]; less than 4.00 in [6]; less than 4.00 in [7]; less than 4.00 in [8]. This compound showed a pKi in assay [10] of 4.33.

Consider `CN1CCC[C@H]1COC(N)=O`, for which the pKi in [4] was less than 4.00; in assay [5] it was less than 4.00; in [9] it was 6.16; in assay [6] it was less than 4.00; in assay [7], less than 4.00; in assay [8] it was less than 4.00. The same compound showed a negative-log Ki (pKi) in assay [10] of 4.11.

With `C[N+]1(C)CCC[C@H]1COC(N)=O`, the pKi is less than 4.00 in assay [4]; less than 4.00 in assay [5]; 5.97 in [9]; less than 4.00 in assay [6]; less than 4.00 in [7]; less than 4.00 in assay [8]. The compound further showed a pKi in assay [10] of 5.74.

Take `CN1CCC[C@H]1[C@@H]1COC(=O)N1`: the pKi is less than 4.00 in assay [4]; less than 4.00 in [5]; 5.05 in [9]; less than 4.00 in assay [6]; less than 4.00 in assay [7]; less than 4.00 in assay [8]. The pKi in assay [10] was 4.19.

Take `CN1CCC[C@H]1[C@H]1COC(=O)N1`: the pKi is less than 4.00 in assay [4]; less than 4.00 in assay [5]; 4.85 in assay [9]; less than 4.00 in [6]; less than 4.00 in assay [7]; less than 4.00 in assay [8]. In [10], this compound showed a negative-log Ki (pKi) of 4.30.

Regarding `CN1CCC[C@H]1[C@@H]1CNC(=O)O1`, the pKi in [4], in assay [5], in assay [6], in assay [7] and in [8] was less than 4.00 throughout.

Compound `CN(C)CCOC(=O)N(C)C` [2-(DIMETHYLAMINO)ETHYL DIMETHYLCARBAMATE] gave a Ki in [1] of 18 µM. For the same compound, the pKi in assay [3] is 5.24.

Consider `CC(C[N+](C)(C)C)OC(N)=O` (stereo not drawn) [BETHANECHOL], for which, in assay [1], the Ki amounted to 0.097 µM.

Compound `C[N+](C)(C)CCOC(N)=O` [CARBAMOYLCHOLINE] showed a pKi in assay [2] of 4.18.
